# From patent publication US9204643B2, “Temperature stable cloquintocet-mexyl aqueous compositions” (Dow AgroSciences LLC, priority 2012, dated 2015)
# Assays:
# [1] = Storage of hydrated CQCM/pyroxsulam concentrate two weeks at 54° C., chemical stability; assay type: physicochemical; conditions: for Chemical Stability: in hydrated CQCM/pyroxsulam concentrate
# Procedure: The aqueous phase was formed by combining water, propylene glycol, antifoam, and wetter surfactant (SYNPERONIC 13/6.5; Croda USA) in a vessel. Powdered anhydrous CQCM was added to the aqueous phase and mixed with a low shear turbine type agitator for 1 hour or until the CQCM was fully converted to the hydrate. A tallow or coco-amine 15 mole ethoxylate (e.g., ETHOMEEN C-25; Akzo Nobel), and MORWET D-425 (Akzo Nobel) were added and mixed in with high shear agitation, followed by the addition of the remaining ingredients shown in Table 4. KELZAN S is a thickener commercially available from CPKelco; Atlanta, Ga. The slurry was then processed through a bead mill to yield the finished product. Short term accelerated storage testing was conducted using freeze/thaw (F/T) conditions during which the temperature was cycled between about −10° C. and 40° C. in a 2 hour period after remaining at −10° C. or 40° C. for 24 hours, as in Example 1. Samples of the composition containing pyroxsulam were also stored for two weeks at 54° C. to evaluate chemical stability of the CQCM […].
# [2] = One year storage stability of hydrated CQCM/pyroxsulam concentrate in an unheated shed; assay type: physicochemical
# Procedure: A 10 L production batch of the composition shown in Table 4 was prepared, dispatched for field trials in Australia, and stored for 1 year in an unheated shed subjected to temperatures ranging from −4° C. to 43° C.
Compound,Chemical Analysis (content in concentrate) ([1]; 54° C. (2 weeks)) [% w/w],Chemical Stability ([1]; 54° C. (2 weeks)) [%],Chemical Analysis (content in concentrate) ([1]; initial composition) [% w/w],"Chemical Stability: Content ([2]; after 1 year, −4° C. to 43° C.)","Chemical Stability: Retention ([2]; after 1 year, −4° C. to 43° C.)",Chemical Stability: Content ([2]; initial)
"CCCCCC(C)OC(=O)COc1ccc(Cl)c2cccnc12 (stereo not drawn) [CQCM, Cloquintocet-mexyl]",13.24,97,13.69,CQCM: 14.40 % w/w,CQCM: 102%,CQCM: 14.15 % w/w
COc1cc(OC)n2nc(NS(=O)(=O)c3c(C(F)(F)F)ccnc3OC)nc2n1 [Pyroxsulam],4.73,102,4.65,Pyroxsulam: 4.84 % w/w,Pyroxsulam: 104%,Pyroxsulam: 4.65 % w/w
